The first test concerns the target T1, purified ITK (Invitrogen PV3875) (Homo sapiens, UniProt Q08881).
T1 construct: purchased Invitrogen PV3875
T1 sequence (Q08881 1-620): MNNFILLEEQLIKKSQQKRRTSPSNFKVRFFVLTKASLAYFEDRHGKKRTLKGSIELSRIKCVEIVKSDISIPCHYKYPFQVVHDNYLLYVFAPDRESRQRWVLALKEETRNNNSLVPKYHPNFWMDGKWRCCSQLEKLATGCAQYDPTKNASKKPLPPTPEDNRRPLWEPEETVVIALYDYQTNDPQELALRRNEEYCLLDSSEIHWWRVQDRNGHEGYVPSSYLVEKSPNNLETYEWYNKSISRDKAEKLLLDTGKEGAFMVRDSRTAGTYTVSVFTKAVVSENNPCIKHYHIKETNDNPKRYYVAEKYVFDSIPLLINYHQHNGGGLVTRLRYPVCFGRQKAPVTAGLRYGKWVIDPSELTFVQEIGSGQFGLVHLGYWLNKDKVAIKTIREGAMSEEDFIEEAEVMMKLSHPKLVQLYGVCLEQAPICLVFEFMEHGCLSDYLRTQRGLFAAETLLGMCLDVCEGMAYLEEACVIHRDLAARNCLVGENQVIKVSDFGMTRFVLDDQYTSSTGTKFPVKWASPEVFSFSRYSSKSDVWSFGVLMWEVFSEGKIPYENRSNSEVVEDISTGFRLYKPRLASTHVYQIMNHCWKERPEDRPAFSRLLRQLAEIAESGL
The experiment in a line: ITK peptide phosphorylation assay (Caliper LabChip or LCMS). The test is classed as biochemical. The conditions noted are these: Table 1, Examples 141-279. The method, boiled down: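 Purified human ITK peptide phosphorylation, quenched with EDTA (50 mM final) for Caliper LabChip separation or TCA (5% v/v final) for UPLC-MS/MS MRM quantification. Ki derived via Morrison tight-binding equation, corrected for competitive inhibition using ATP concentration relative to Km,app.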
As for `COc1cncc(-c2ccc3c(C(=O)Nc4cnn(C(CCN(C)C)c5ccccc5)c4)n[nH]c3c2)c1` (stereo not drawn) [Example 213, N-[1-[3-(dimethylamino)-1-phenyl-propyl]pyrazol-4-yl]-6-(5-methoxy-3-pyridyl)-1H-indazole-3-carboxamide], the Ki is 8.01 nM. Regarding `O=C(Nc1cnn(CC2COCCO2)c1)c1n[nH]c2cc(-c3cn[nH]c3)ccc12` (stereo not drawn) [Example 237], the Ki stood at 3.7 nM.

Compound `O=C(Nc1cnn(CC2CCOCC2)c1)c1n[nH]c2cc(-c3cn[nH]c3)ccc12` [Example 242] registered a Ki of 2.47 nM. Regarding `CN1CC(c2ccc3c(C(=O)Nc4cnn(Cc5cccc(C#N)c5)c4)n[nH]c3c2)C1` [Example 191, N-[1-[(3-cyanophenyl)meth-yl]pyrazol-4-yl]-6-(1-methylazetidin-3-yl)-1H-indazole-3-carboxamide], the Ki came out at 2400 nM.

With `COc1cncc(-c2ccc3c(C(=O)Nc4cnn(C(C)C)c4)n[nH]c3c2)c1` [Example 223, N-(1-isopropylpyrazol-4-yl)-6-(5-methoxy-3-pyridyl)-1H-indazole-3-carboxamide], the Ki came to 90 nM. Compared with the last compound, the Ki is about 27-fold lower. In turn, `Cc1cc2c(C(=O)Nc3cnn(Cc4cccc(C#N)c4)c3)n[nH]c2cc1-c1cncc(C#N)c1` [Example 148, N-[1-[(3-cyanophenyl)meth-yl]pyrazol-4-yl]-6-(5-cyano-3-pyridyl)-5-methyl-1H-indazole-3-carboxamide] had a Ki of 57.2 nM. On to `O=C(Nc1cnn(C(CCN2CCOCC2)c2ccccc2)c1)c1n[nH]c2cc(-c3cn[nH]c3)ccc12` (stereo not drawn) [Example 162, N-[1-(3-morpholino-1-phenyl-propyl)pyrazol-4-yl]-6-(1H-pyrazol-4-yl)-1H-indazole-3-carboxamide], for which affinity was put at a Ki of 0.28 nM. This Ki is about 200-fold lower than that of the compound before. On the same count and under the same terms, the result for `CN(C)CCC(c1ccccc1)n1cc(NC(=O)c2n[nH]c3ccccc23)cn1` (stereo not drawn) [Example 268, N-[1-[3-(dimethylamino)-1-phenyl-propyl]pyrazol-4-yl]-1H-indazole-3-carboxamide] reads 5.98 nM; that for `CN(C)CCC(c1ccccc1)n1cc(NC(=O)c2n[nH]c3cc(-c4cn[nH]c4)cnc23)cn1` (stereo not drawn) [Example 279, N-[1-[3-(dimethylamino)-1-phenyl-propyl]pyrazol-4-yl]-6-(1H-pyrazol-4-yl)-1H pyrazolo[4,3-b]pyridine-3-carboxamide], 36.7 nM; that for `O=C(Nc1cnn([C@@H](CO)c2cscn2)c1)c1n[nH]c2cc(-c3cn[nH]c3)ccc12` [Example 177, N-[1-[(1R)-2-hydroxy-1-thiazol-4-yl-ethyl]pyrazol-4-yl]-6-(1H-pyrazol-4-yl)-1H-indazole-3-carboxamide], 7.5 nM. Still for that read-out and setting: as for `CN(C)CCC(c1ccccc1)n1cc(NC(=O)c2n[nH]c3cc(-c4cccnc4)ccc23)cn1` (stereo not drawn) [Example 157, N-[1-[3-(dimethylamino)-1-phenyl-propyl]pyrazol-4-yl]-6-(3-pyridyl)-1H-indazole-3-carboxamide], the figure is 7.81 nM.

The test is the same for the next values; noted with them: Table 2, Examples 1-140, class symbols.
`O=C(Nc1cnn(CCc2ccccc2)c1)c1n[nH]c2cc(-c3cn[nH]c3)ccc12` [Example 11, 6-(1H-Pyrazol-4-yl)-1H-indazole-3-carboxylic acid (1-phenethyl-1H-pyrazol-4-yl)-amide] had a Ki of 1 to 100 nM. `NC(=O)c1ccc(Cn2cc(NC(=O)c3n[nH]c4cc(-c5cn[nH]c5)ccc34)cn2)cc1` [Example 12, 6-(1H-Pyrazol-4-yl)-1H-indazole-3-carboxylic acid [1-(4-carbamoyl-benzyl)-1H-pyrazol-4-yl]-amide] gave a Ki of 0.01 to 1 nM. The same measure, in the same setting: as for `CN1CCN(c2nc(Cn3cc(NC(=O)c4n[nH]c5cc(-c6cn[nH]c6)ccc45)cn3)cs2)CC1` [Example 42, N-[1-[[2-(4-methylpiperazin-1-yl)thiazol-4-yl]methyl]pyrazol-4-yl]-6-(1H-pyrazol-4-yl)-1H-indazole-3-carboxamide], the figure is 1 to 100 nM. Compound `N#Cc1cccc(Cn2cc(NC(=O)c3n[nH]c4cc(F)ccc34)cn2)c1` [Example 3, N-(1-(3-cyanobenzyl)-1H-pyrazol-4-yl)-6-fluoro-1H-indazole-3-carboxamide] gave a Ki of 1 to 100 nM. On to `COc1ccccc1Cn1cc(NC(=O)c2n[nH]c3ccccc23)cn1` [Example 64, N-(1-(2-methoxybenzyl)-1H-pyrazol-4-yl)-1H-indazole-3-carboxamide], for which the Ki was over 100 nM.

Compound `O=C(Nc1cnn(Cc2cccc(C(F)(F)F)c2)c1)c1n[nH]c2ccccc12` [Example 59, N-(1-(3-(trifluoromethyl)benzyl)-1H-pyrazol-4-yl)-1H-indazole-3-carboxamide] returned a Ki of 1 to 100 nM. Take `O=C(Nc1cnn(Cc2cc(-c3ccccc3)on2)c1)c1n[nH]c2cc(-c3cn[nH]c3)ccc12` [Example 16, 6-(1H-Pyrazol-4-yl)-1H-indazole-3-carboxylic acid [1-(5-phenyl-isoxazol-3-ylmethyl)-1H-pyrazol-4-yl]-amide]: the Ki is 1 to 100 nM.

Compound `CC(C)c1nc(Cn2cc(NC(=O)c3n[nH]c4cc(-c5cn[nH]c5)ccc34)cn2)cs1` [Example 21, 6-(1H-Pyrazol-4-yl)-1H-indazole-3-carboxylic acid [1-(2-isopropyl-thiazol-4-ylmethyl)-1H-pyrazol-4-yl]-amide] gave a Ki of 1 to 100 nM. `O=C(Nc1cnn(Cc2nc3ccccc3s2)c1)c1n[nH]c2cc(-c3cn[nH]c3)ccc12` [Example 17, 6-(1H-Pyrazol-4-yl)-1H-indazole-3-carboxylic acid (1-benzothiazol-2-ylmethyl-1H-pyrazol-4-yl)-amide] yielded a Ki of 1 to 100 nM. `O=C(Nc1cnn(Cc2ccc(CNCC(F)F)cc2)c1)c1n[nH]c2ccccc12` [Example 105, N-(1-(4-((2,2-difluoroethylamino)methyl)benzyl)-1H-pyrazol-4-yl)-1H-indazole-3-carboxamide] came in with a Ki of 1 to 100 nM. In the case of `O=C(Nc1cnn(Cc2csc(N3CCOCC3)n2)c1)c1n[nH]c2cc(-c3cn[nH]c3)ccc12` [Example 41, N-[1-[(2-morpholinothiazol-4-yl)methyl]pyrazol-4-yl]-6-(1H-pyrazol-4-yl)-1H-indazole-3-carboxamide], the Ki is 1 to 100 nM. As for `NC(=O)c1cccc(Cn2cc(NC(=O)c3n[nH]c4cc(-c5cccnc5)ccc34)cn2)c1` [Example 31, N-[1-[(3-carbamoylphenyl)methyl]pyrazol-4-yl]-6-(3-pyridyl)-1H-indazole-3-carboxamide], the Ki lay in the range of 1 to 100 nM. On to `COc1cc(Cn2cc(NC(=O)c3n[nH]c4ccccc34)cn2)cc(OC)c1` [Example 70, N-(1-(3,5-dimethoxybenzyl)-1H-pyrazol-4-yl)-1H-indazole-3-carboxamide], for which the Ki fell in the range of 1 to 100 nM. Still for that read-out and setting: the result for `O=C(Nc1cnn(Cc2cccnc2)c1)c1n[nH]c2ccccc12` [Example 54, N-(1-(pyridin-3-ylmethyl)-1H-pyrazol-4-yl)-1H-indazole-3-carboxamide] reads 1 to 100 nM; that for `O=C(Nc1cnn(Cc2cccc(C(=O)N3CCC(O)CC3)c2)c1)c1n[nH]c2cc(-c3cn[nH]c3)ccc12` [Example 22, 6-(1H-Pyrazol-4-yl)-1H-indazole-3-carboxylic acid {1-[3-(4-hydroxy-1-piperidine-1-carbonyl)-benzyl]-1H-pyrazol-4-yl}amide], 1 to 100 nM.

Still in this test, the particulars now being: Table 3, specific values for certain examples.
In turn, `N#Cc1cccc(Cn2cc(NC(=O)c3n[nH]c4cc(F)ccc34)cn2)c1` [Example 3, N-(1-(3-cyanobenzyl)-1H-pyrazol-4-yl)-6-fluoro-1H-indazole-3-carboxamide] registered a Ki of 18.5 nM. That is a double-digit nanomolar value. In the case of `O=C(Nc1cnn(Cc2cc(-c3ccccc3)on2)c1)c1n[nH]c2cc(-c3cn[nH]c3)ccc12` [Example 16, 6-(1H-Pyrazol-4-yl)-1H-indazole-3-carboxylic acid [1-(5-phenyl-isoxazol-3-ylmethyl)-1H-pyrazol-4-yl]-amide], the Ki stood at 6.9 nM.

On to `O=C(Nc1cnn(Cc2nc3ccccc3s2)c1)c1n[nH]c2cc(-c3cn[nH]c3)ccc12` [Example 17, 6-(1H-Pyrazol-4-yl)-1H-indazole-3-carboxylic acid (1-benzothiazol-2-ylmethyl-1H-pyrazol-4-yl)-amide], for which the Ki worked out at 1.8 nM. Compared with the last compound, the Ki is about 3.8-fold lower. As to `O=C(Nc1cnn(Cc2cccnc2)c1)c1n[nH]c2ccccc12` [Example 54, N-(1-(pyridin-3-ylmethyl)-1H-pyrazol-4-yl)-1H-indazole-3-carboxamide], affinity was put at a Ki of 53.2 nM.

These data come from patent publication US20140309210A1, “INDAZOLE COMPOUNDS, COMPOSITIONS AND METHODS OF USE THEREOF” (Genentech, Inc., priority 2011, published 2014).
